Test results as given in article doi:10.1101/2024.07.14.603434v1 (biorxiv, 2024).

Columns and labels:
NagA = biological target: T1, NagA (Streptomyces coelicolor, UniProt Q9KXV7); assay: decrease of amide absorbance at […] nm; type: biochemical; conditions: phosphate buffer pH 7.4, 30 °C
T1 sequence (Q9KXV7 1-381): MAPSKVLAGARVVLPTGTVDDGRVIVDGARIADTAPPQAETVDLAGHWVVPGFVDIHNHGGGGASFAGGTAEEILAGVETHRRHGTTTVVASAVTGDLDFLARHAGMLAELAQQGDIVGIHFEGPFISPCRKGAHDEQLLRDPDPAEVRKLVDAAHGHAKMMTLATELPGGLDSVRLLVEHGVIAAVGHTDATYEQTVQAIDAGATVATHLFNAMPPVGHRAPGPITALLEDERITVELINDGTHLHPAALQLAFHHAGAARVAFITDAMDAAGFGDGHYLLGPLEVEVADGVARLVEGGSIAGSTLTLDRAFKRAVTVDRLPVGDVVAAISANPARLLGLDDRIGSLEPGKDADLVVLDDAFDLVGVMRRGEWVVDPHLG

NagS = biological target: T2, NagS (Streptomyces coelicolor, UniProt Q9K3V1); assay: UV absorbance of product at […] nm; type: biochemical; conditions: 100 mM phosphate, 100 mM NaCl, pH 7.4 buffer stock; 30 °C
T2 sequence (Q9K3V1 1-251): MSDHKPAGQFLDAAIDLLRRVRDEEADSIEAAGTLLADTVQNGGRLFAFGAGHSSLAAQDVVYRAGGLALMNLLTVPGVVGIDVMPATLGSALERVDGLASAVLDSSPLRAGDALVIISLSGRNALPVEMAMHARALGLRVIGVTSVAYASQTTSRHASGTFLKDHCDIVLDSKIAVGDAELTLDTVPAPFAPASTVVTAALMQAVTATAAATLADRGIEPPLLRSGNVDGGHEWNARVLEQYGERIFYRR

Km (NagA) [µM] | Km (NagS) [µM] | SMILES
2840 ± 410 | – | CC(=O)N[C@H]1C(O)O[C@H](COP(=O)(O)O)[C@H](O)[C@@H]1O (some centres unmarked) [GalNAc-6P]
1590 ± 210 | 450 ± 30 | CC(=O)N[C@H]1C(O)O[C@H](COP(=O)(O)O)[C@@H](O)[C@@H]1O (some centres unmarked) [GlcNAc-6P]
2400 ± 440 | 680 ± 50 | CC(=O)N[C@@H]1C(O)O[C@H](COP(=O)(O)O)[C@@H](O)[C@@H]1O (some centres unmarked) [ManNAc-6P]
